# In US7888337B2 (priority 2007, dated 2011):
# Several values for one entry are separate records, joined by “and”; a condition that tells them apart may be missing. Equal entries are not always repeated. Where two headings read alike, the source gives them in different places. Marks after values point to notes of the source that are not given here.
# Legend:
# [1] = system: NIBRG-14 (H5N1) influenza A virus; set-up: species or system mice; conditions: mouse, in vivo
# [2] = in vitro; conditions: dog
# [3] = system: flu (A/WSN/1933) infection, H1N1; test: microbe, parasite or virus in culture; assay type: cell-based, influenza A/WSN/1933 (H1N1)
# [4] = biological target: NA from influenza virus A/Hanoi/30408/2005 (H5N1) (Influenza A virus (A/Hanoi/30408/2005(H5N1)), UniProt Q3C1C4); test: biochemical
# [5] = system: influenza A [A/WSN/33 (H1N1)] virus; set-up: species or system mice; conditions: mouse, in vivo; for efficacy at lower concentrations in comparison to compounds 3 and 13b: 0.01 mg/kg/day
# [6] = system: A/WSN/33 (H1N1) influenza virus; conditions: mouse, in vivo
# [7] = biological target: Neuraminidase (NA) from influenza virus A/WSN/1933 (H1N1) (Influenza A virus, UniProt P03470); test: biochemical; assay type: biochemical
# Chain of Neuraminidase (NA) from influenza virus A/WSN/1933 (H1N1) (P03470 whole entry, looked up): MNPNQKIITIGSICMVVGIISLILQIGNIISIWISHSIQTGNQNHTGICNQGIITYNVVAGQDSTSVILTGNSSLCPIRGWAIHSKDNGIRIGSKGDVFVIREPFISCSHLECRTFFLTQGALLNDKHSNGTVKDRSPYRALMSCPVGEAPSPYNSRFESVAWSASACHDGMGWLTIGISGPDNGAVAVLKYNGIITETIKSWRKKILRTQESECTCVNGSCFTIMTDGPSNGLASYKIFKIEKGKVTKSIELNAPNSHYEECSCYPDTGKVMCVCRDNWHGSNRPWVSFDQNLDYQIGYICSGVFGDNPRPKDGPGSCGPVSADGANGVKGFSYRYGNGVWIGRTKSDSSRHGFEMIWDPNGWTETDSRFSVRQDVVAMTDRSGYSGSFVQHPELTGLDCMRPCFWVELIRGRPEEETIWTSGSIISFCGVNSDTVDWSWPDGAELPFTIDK
structure (smiles),measurement,setting,value
"CCOC(=O)C1=C[C@@H](OC(CC)CC)[C@H](NC(C)=O)[C@@H](N)C1 [Compound 1, Ethyl (3R,4R,5S)-4-acetamido-5-amino-3-(1-ethylpropoxy)-1-cyclohexene-1-carboxylate phosphate, reference compound]","% Survivors, day 7",[1]; phosphate,10 (100)^b % and 0 (40)^b % and 0 (0)^b %
same,"% Survivors, day 14",[1]; phosphate,10 (100)^b % and 0 (40)^b % and 0 (0)^b %
same,Mean day to death,[1]; phosphate,9.4 days and 7.6 days and 5.3 days
"CCC(CC)O[C@@H]1C=C(C(=O)O)C[C@H](N)[C@H]1NC(C)=O [Compound 2, (3R,4R,5S)-4-Acetamido-5-amino-3-(1-ethylpropoxy)-1-cyclohexene-1-carboxylic acid, reference compound]",CC50,[2],> 100 µM
same,EC50,[3]; read-out: EC50,31.3 nM
same,IC50,[4],62.9 nM
"CCC(CC)O[C@@H]1C=C(P(=O)(O)O)C[C@H](N)[C@H]1NC(C)=O [Compound 3, Ammonium (3R,4R,5S)-4-acetamido-5-amino-3-(1-ethylpropoxy)-1-cyclohexene-1-phosphonate]",Mean day to death,[5],8.2 days and 5.9 days and 5.3 days
same,"% Survivors, day 7",[1],10 (100)^b % and 0 (60)^b % and 0 (0)^b %
same,"% Survivors, day 14",[1],10 (100)^b % and 0 (60)^b % and 0 (0)^b %
same,Mean day to death,[1],9.1 days and 8.7 days and 5.6 days and 5.7 days
same,efficacy compared with Tamiflu by survival rate and mean survival time of mice,[1],at least equally effective
same,CC50,[2],74 µM
same,EC50,"[3]; Influenza A virus, MDCK",4.67 nM
same,efficacy compared with Tamiflu by survival rate and mean survival time of mice,[6],more effective than Tamiflu
same,oral bioavailability in protecting mice against lethal challenge,[6]; po,orally bioavailable
same,IC50,[4],13.3 nM
"CCOP(=O)(OCC)C1=C[C@@H](OC(CC)CC)[C@H](NC(C)=O)[C@@H](N)C1 [Compound 3b, Diethyl (3R,4R,5S)-4-acetamido-5-amino-3-(1-ethylpropoxy)-1-cyclohexene-1-phosphonate]","% Survivors, day 7",[1],0 (100)^b % and 0 (20)^b % and 0 (0)^b %
same,"% Survivors, day 14",[1],0 (100)^b % and 0 (20)^b % and 0 (0)^b %
same,Mean day to death,[1],9.5 days and 7.3 days and 5.3 days and 4.9 days
same,"% Survivors, day 7",[6],0 (100)^b % and 0 (60)^b % and 0 (30)^b %
same,"% Survivors, day 14",[6],0 (100)^b % and 0 (60)^b % and 0 (30)^b %
"CCOP(=O)(O)C1=C[C@@H](OC(CC)CC)[C@H](NC(C)=O)[C@@H](N)C1.N [Compound 3c, Ethyl (3R,4R,5S)-4-acetamido-5-amino-3-(1-ethylpropoxy)-1-cyclohexene-1-phosphonate ammonium salt]",survival rate and body weight in comparison to compounds 3 and 13b,[5],improved survival rates and improved weight retention
same,efficacy at lower concentrations in comparison to compounds 3 and 13b,[5],equally ineffective
same,Mean day to death,[5]; ammonium salt,9.3 days and 6.2 days and 4.8 days
"CCC(CC)O[C@@H]1C=C(C(=O)O)C[C@H](NC(=N)N)[C@H]1NC(C)=O [Compound 13a, (3R,4R,5S)-4-acetamido-5-guanidinyl-3-(1-ethylpropoxy)-1-cyclohexene-1-carboxylic acid, reference compound]",CC50,[2],> 100 µM
same,EC50,"[3]; Influenza A virus, MDCK",5.6 nM
same,IC50,[4],160 nM
"CCC(CC)O[C@@H]1C=C(P(=O)(O)O)C[C@H](NC(=N)N)[C@H]1NC(C)=O [Compound 13b, Ammonium (3R,4R,5S)-4-acetamido-5-guanidinyl-3-(1-ethylpropoxy)-1-cyclohexene-1-phosphonate]",CC50,[2],~5 µM
same,EC50,"[3]; Influenza A virus, MDCK",0.09 nM
same,IC50,[4],1.82 nM
"CCOP(=O)(O)C1=C[C@@H](OC(CC)CC)[C@H](NC(C)=O)[C@@H](NC(=N)N)C1.N [Compound 13c, Ethyl (3R,4R,5S)-4-acetamido-5-guanidinyl-3-(1-ethylpropoxy)-1-cyclohexene-1-phosphonate ammonium salt]",survival rate and body weight in comparison to compounds 3 and 13b,[5],improved survival rates and improved weight retention
same,efficacy at lower concentrations in comparison to compounds 3 and 13b,[5],equally ineffective
same,Mean day to death,[5]; ammonium salt,6.8 days and 5.7 days
"CC(=O)N[C@H]1[C@H](O)C=C(C(=O)O)C[C@@H]1N [Compound 14a, (3R,4R,5S)-4-Acetamido-5-amino-3-hydroxy-1-cyclohexene-1-carboxylic acid, reference compound]",IC50,[7],36.7 µM
same,NAI activity in comparison with 2 and 3,[7],inferior NAI activity
"CC(=O)N[C@H]1[C@H](O)C=C(P(=O)(O)O)C[C@@H]1N [Compound 14b, Ammonium (3R,4R,5S)-4-acetamido-5-amino-3-hydroxy-1-cyclohexene-1-phosphonate]",IC50,[7],3.2 µM
same,NAI activity in comparison with 2 and 3,[7],inferior NAI activity
